The series concerns proteome of NCI-H1568 cells. Briefly: Whole cell unbiased proteomics (TMT) in NCI-H1568 cells. The settings on record: for Rel. Int.: TMT reporter intensity relative to DMSO 1; for Rel. Int. / Normalised: replicates 1-3; for average: average of normalised replicates; for log2: log2 fold change vs DMSO; for Normalised: normalised relative intensity. The series is classed as cell-based, human. Here is the method: Cells were seeded at 5 × 10^6 cells on a 100 mm plate 24 h before treatment. Cells were treated in triplicate by addition of test compounds at 100 nM. After 4 h, the cells were washed twice with 10 ml cold PBS and lysed in 500 µL of 100 mM TEAB with 5% (w/v) SDS. The lysate was pulse sonicated briefly and then centrifuged at 15,000 × g for 10 min. Samples were quantified using a micro-BCA protein assay kit (Thermo Fisher Scientific). 300 µg of each sample was reduced with DTT, alkalised with iodoacetamide and double-digested with trypsin using the modified S-TRAP mini (ProtiFi) protocol. Peptide quantification was done using Pierce™ Quantitative Fluorometric Peptide Assay and equal amount from each sample was labelled using TMTpro^TM 16plex Label Reagent Set (Thermo Fisher Scientific) as per the manufacturer’s instructions. The samples were then pooled and desalted using a 7 mm, 3 mL C18 SPE cartridge column (Empore, 3 M). The pooled and desalted sample was fractionated using high pH reverse-phase chromatography on an XBridge peptide BEH column (130 Å, 3.5 μm, 2.1 × 150 mm, Waters) on an Ultimate 3000 HPLC system (Thermo Scientific/Dionex). Buffers A (10 mM ammonium formate in water, pH 9) and B (10 mM ammonium formate in 90% acetonitrile, pH 9) were used over a linear gradient of 2% to 100% buffer B over 80 min at a flow rate of 200 μL/min. 80 fractions were collected using a WPS-3000 FC auto-sampler (Thermo Scientific) before concatenation into 20 fractions based on the UV signal of each fraction. All the fractions were dried in a Genevac EZ-2 concentrator and resuspended in 1% formic acid for MS analysis. The fractions were analysed sequentially on a Q Exactive HF Hybrid Quadrupole-Orbitrap Mass Spectrometer (Thermo Scientific) coupled to an Dionex Ultimate 3000 RS (Thermo Scientific). […] The column temperature was 50 °C. The mass spectrometer was operated in data dependent mode with a single MS survey scan from 335 to 1600 m/z followed by 15 sequential m/z dependent MS2 scans. The 15 most intense precursor ions were sequentially fragmented by higher energy collision dissociation (HCD). The MS1 isolation window was set to 0.7 m/z and the resolution set at 120,000. MS2 resolution was set at 60,000. The AGC targets for MS1 and MS2 were set at 3 × 10^6 ions and 1 × 10^5 ions, respectively. The normalised collision energy was set at 32%. The maximum ion injection times for MS1 and MS2 were set at 50 ms and 200 ms, respectively. The mass accuracy was checked before the initiation of sample analysis. The raw MS data files for all 20 fractions were merged and searched against the Uniprot-sprot-Human-Canonical database (FASTA file released in November 2019) by Maxquant software 2.0.3.0 for protein identification and TMT reporter ion quantitation. The Maxquant parameters were set as follows: enzyme used Trypsin/P; maximum number of missed cleavages equal to two; precursor mass tolerance equal to 10 p.p.m.; fragment mass tolerance equal to 20 p.p.m.; variable modifications: oxidation (M), dioxidation (MW), acetyl (N-term), deamidation (NQ), Gln -> pyro-Glu (Q N-term); fixed modifications: carbamidomethyl (C). Peptide and protein data was filtered by applying a 1% false discovery rate followed by exclusion of proteins with less than two unique peptides. Quantified proteins were filtered if the absolute fold-change difference between the three DMSO replicates was ≥1.5.

Where [1] appears, read: protein SIK1 (LOC102724428;SIK1).

The values that follow come from article PMC9551036, “A selective and orally bioavailable VHL-recruiting PROTAC achieves SMARCA2 degradation in vivo” (Nature Communications, 2022).

Where “and” joins values, the source holds several entries; their conditions need not be identical. Identical values can stand only once.

For the compound `Cc1ncsc1-c1ccc(C(CCC(C)CCN2CCC(c3ccc4c(c3)n(C3CCCC3)c3nc(=O)c5c(Br)cccc5n43)CC2)NC(=O)C2CC(O)CN2C(=O)C(NC(=O)C2(F)CC2)C(C)(C)C)cc1` (stereo not drawn) [ACBI2], the “-logP” value is listed as 4.42. In addition, where the note is “protein BRPF1 (P55201)”, the “Rel. Int.” value was 0.86 and 0.73 and 0.58; the average was 0.72; the log2 is listed as -0.46; the Normalised was 0.74 and 0.73 and 0.70. For the same compound, under “protein ETS1 (P14921)”, the “Rel. Int.” value was 1.29 and 1.11 and 0.95; the average amounted to 1.13; the log2 came to 0.17; the Normalised is 1.12 (2×) and 1.14. Also, where the note is “protein PBRM1 (Q86U86)”, the “Rel. Int.” value was 0.41 and 0.40 and 0.32; the average is reported as 0.38; the log2 is listed as -1.40; the Normalised is 0.36 and 0.40 and 0.39. For the same compound, under setting [1], the “Rel. Int.” value was 1.44 and 1.21 and 1.03; the average was determined as 1.24; the log2 is 0.30; the Normalised is 1.25 and 1.21 and 1.24. Where the note is “protein SMARCA2 (P51531)”, the “Rel. Int.” value was 0.52 and 0.45 and 0.40; the average worked out at 0.46; the log2 is -1.12; the Normalised was 0.45 and 0.46 and 0.48.

Take `Cc1ncsc1-c1ccc([C@H](CC[C@H](C)CCN2CCC(c3ccc4c(c3)n(C3CCCC3)c3nc(=O)c5c(Br)cccc5n43)CC2)NC(=O)[C@@H]2C[C@H](O)CN2C(=O)[C@@H](NC(=O)C2(F)CC2)C(C)(C)C)cc1` [compound 12]: the “-logP” value came out at 0.0276. Also, where the note is “protein BRPF1 (P55201)”, the “Rel. Int.” value is 0.90 and 0.91 (2×); the average came to 0.99; the log2 is -0.0113; the Normalised was 0.98 (2×) and 1.02. Further, under “protein ETS1 (P14921)”, the “Rel. Int.” value is 0.94 and 0.98 and 0.91; the average is given as 1.03; the log2 came to 0.05; the Normalised is 1.04 and 1.05 and 1.02. For the setting “protein PBRM1 (Q86U86)”, the “Rel. Int.” value was 0.85 and 0.92 and 0.84; the average turned out to be 0.95; the log2 is on record as -0.07; the Normalised is 0.93 and 0.98 and 0.94. Under setting [1], the “Rel. Int.” value is 0.93 and 0.92 and 0.88; the average is 1.00; the log2 is given as -0.00277; the Normalised was 1.02 and 0.98 and 0.99. Where the note is “protein SMARCA2 (P51531)”, the “Rel. Int.” value was 0.90 and 0.92 and 0.88; the average worked out at 0.99; the log2 is listed as -0.0184; the Normalised was 0.99 (2×) and 0.98.
